Results from patent US20250360235A1, “RADI[…] AND METHOD FOR RADIOLABELLING” (Telix Innovations SA, priority 2024, published 2025).

Assay: Radiochemical purity by HPLC over time after radiolabelling
Type: physicochemical
Protocol: Table 1 to Table 5 show the results of various radiolabelling experiments on radiochemical purity and the chelation yield. The radiolabelling experiments in the tables are carried out as described in: • Example 1 for when the gallium-68 source is GE Liquid target generator and EZAG GalliaPharm generator; • Example 2 for when the gallium-68 source is IRE Galli Eo generator; • Example 3 for when the gallium-68 source is GE solid target generator;
However, the experiments were carried out with the amount of ascorbic acid as indicated in the Tables 1 to 5, and the activity as indicated in the Tables 1 to 5. Radiochemical purities were measured at various times (T0, T1, T4, T6) after the radiolabelled experiments have been conducted.
The kits of Example 1, Example 2 or Example 3, with amounts of ascorbic acid as set out in Table 7 were used in the experiments for the ascorbic acid bracketing matrix. Three strengths of [^68Ga]Ga-PSMA-11 will be tested, i.e. 50 mCi/ml, 7 mCi/ml and 1 mCi/ml. Radiochemical purity was determined at different time points (TO, T1, T4 or T6), as set out in Table 7.

In the case of `O=C([O-])CN(CCN(CC(=O)[O-])Cc1cc(CCC(=O)NCCCCCC(=O)NCCCC[C@H](NC(=O)N[C@@H](CCC(=O)O)C(=O)O)C(=O)O)ccc1[O-])Cc1cc(CCC(=O)O)ccc1[O-].[68Ga+3].[OH3+]` [[^68Ga]PSMA-11, gallium-68 radiolabelled Glu-urea-Lys-HBED-CC (gozetotide or PSMA-11)], the “Radiochemical Purity (HPLC) Ga-68 PSMA-11 (%)” value (from here on “Radiochemical Purity … (%)”) (1 mg ascorbic acid, 58.7-71.1 mCi, 7.47-8.99 mCi/mL, GE Liquid target, average of 3, T0) is reported as 100%, the “Radiochemical Purity … (%)” value (1 mg ascorbic acid, 58.7-71.1 mCi, 7.47-8.99 mCi/mL, GE Liquid target, average of 3, T4 (4 h)) is reported as 100% and the “Radiochemical Purity … (%)” value (1 mg ascorbic acid, 58.7-71.1 mCi, 7.47-8.99 mCi/mL, GE Liquid target, n=3, T0) is reported as “C (C = conforms to specifications)”. The “Radiochemical Purity … (%)” value (1 mg ascorbic acid, 58.7-71.1 mCi, 7.47-8.99 mCi/mL, GE Liquid target, n=3, T4 (4 h)) was “C (C = conforms to specifications)”, the “Radiochemical Purity … (%)” value (2.5 mg ascorbic acid, 49.9-76.9 mCi, 6.31-9.72 mCi/mL, GE Liquid target, average of 3, T0) was 100% and the “Radiochemical Purity … (%)” value (2.5 mg ascorbic acid, 49.9-76.9 mCi, 6.31-9.72 mCi/mL, GE Liquid target, average of 3, T4 (4 h)) was 100%. The “Radiochemical Purity … (%)” value (2.5 mg ascorbic acid, 49.9-76.9 mCi, 6.31-9.72 mCi/mL, GE Liquid target, n=3, T0) was “C (C = conforms to specifications)”, the “Radiochemical Purity … (%)” value (2.5 mg ascorbic acid, 49.9-76.9 mCi, 6.31-9.72 mCi/mL, GE Liquid target, n=3, T4 (4 h)) was “C (C = conforms to specifications)” and the “Radiochemical Purity … (%)” value (5 mg ascorbic acid, 60-69.9 mCi, 7.61-8.81 mCi/mL, 3 × GE Liquid Target, 3 × EZAG GalliaPharm, average of 6, T0) was 100%. The “Radiochemical Purity … (%)” value (5 mg ascorbic acid, 60-69.9 mCi, 7.61-8.81 mCi/mL, 3 × GE Liquid Target, 3 × EZAG GalliaPharm, average of 6, T4 (4 h)) was 100%, the “Radiochemical Purity … (%)” value (5 mg ascorbic acid, 60-69.9 mCi, 7.61-8.81 mCi/mL, 3 × GE Liquid Target, 3 × EZAG GalliaPharm, n=6, T0) was “C (C = conforms to specifications)” and the “Radiochemical Purity … (%)” value (5 mg ascorbic acid, 60-69.9 mCi, 7.61-8.81 mCi/mL, 3 × GE Liquid Target, 3 × EZAG GalliaPharm, n=6, T4 (4 h)) was “C (C = conforms to specifications)”. For the same compound, the “Radiochemical Purity … (%)” value (10 mg ascorbic acid, 514-520 mCi, 49.0-66.1 mCi/mL, GE Solid Target, average of 3, T0) was 100%, the “Radiochemical Purity … (%)” value (10 mg ascorbic acid, 514-520 mCi, 49.0-66.1 mCi/mL, GE Solid Target, average of 3, T6 (6 h)) was 100% and the “Radiochemical Purity … (%)” value (10 mg ascorbic acid, 514-520 mCi, 49.0-66.1 mCi/mL, GE Solid Target, n=3, T0) was “C (C = conforms to specifications)”. For the same compound, the “Radiochemical Purity … (%)” value (10 mg ascorbic acid, 514-520 mCi, 49.0-66.1 mCi/mL, GE Solid Target, n=3, T6 (6 h)) was “C (C = conforms to specifications)”, the “Radiochemical Purity … (%)” value (15 mg ascorbic acid, 10.0-18.4 mCi, 0.95-1.77 mCi/mL, 1 × EZAG GalliaPharm, 2 × IRE Galli Eo, average of 3, T0) was 100% and the “Radiochemical Purity … (%)” value (15 mg ascorbic acid, 10.0-18.4 mCi, 0.95-1.77 mCi/mL, 1 × EZAG GalliaPharm, 2 × IRE Galli Eo, average of 3, T1 (1 h)) was 100%. The “Radiochemical Purity … (%)” value (15 mg ascorbic acid, 10.0-18.4 mCi, 0.95-1.77 mCi/mL, 1 × EZAG GalliaPharm, 2 × IRE Galli Eo, n=3, T0) was “C (C = conforms to specifications)”, the “Radiochemical Purity … (%)” value (15 mg ascorbic acid, 10.0-18.4 mCi, 0.95-1.77 mCi/mL, 1 × EZAG GalliaPharm, 2 × IRE Galli Eo, n=3, T1 (1 h)) was “C (C = conforms to specifications)” and the “Radiochemical Purity … (%)” value (15 mg ascorbic acid, 23.7-47.6 mCi, 2.26-4.53 mCi/mL, 1 × EZAG GalliaPharm, 2 × IRE Galli Eo, average of 3, T0) was 100%. For the same compound, the “Radiochemical Purity … (%)” value (15 mg ascorbic acid, 23.7-47.6 mCi, 2.26-4.53 mCi/mL, 1 × EZAG GalliaPharm, 2 × IRE Galli Eo, average of 3, T4 (4 h)) was 100%, the “Radiochemical Purity … (%)” value (15 mg ascorbic acid, 23.7-47.6 mCi, 2.26-4.53 mCi/mL, 1 × EZAG GalliaPharm, 2 × IRE Galli Eo, n=3, T0) was “C (C = conforms to specifications)” and the “Radiochemical Purity … (%)” value (15 mg ascorbic acid, 23.7-47.6 mCi, 2.26-4.53 mCi/mL, 1 × EZAG GalliaPharm, 2 × IRE Galli Eo, n=3, T4 (4 h)) was “C (C = conforms to specifications)”. The “Radiochemical Purity … (%)” value (20 mg ascorbic acid, 514-544 mCi, 48.3-51.9 mCi/mL, GE Solid Target, average of 2, T0) was 100%, the “Radiochemical Purity … (%)” value (20 mg ascorbic acid, 514-544 mCi, 48.3-51.9 mCi/mL, GE Solid Target, average of 2, T6 (6 h)) was 100% and the “Radiochemical Purity … (%)” value (20 mg ascorbic acid, 514-544 mCi, 48.3-51.9 mCi/mL, GE Solid Target, n=2, T0) was “C (C = conforms to specifications)”. For the same compound, the “Radiochemical Purity … (%)” value (20 mg ascorbic acid, 514-544 mCi, 48.3-51.9 mCi/mL, GE Solid Target, n=2, T6 (6 h)) was “C (C = conforms to specifications)”, the “Radiochemical Purity … (%)” value (25 mg ascorbic acid, 19.5-20.0 mCi, 1.85-1.90 mCi/mL, EZAG GalliaPharm, average of 2, T0) was 100% and the “Radiochemical Purity … (%)” value (25 mg ascorbic acid, 19.5-20.0 mCi, 1.85-1.90 mCi/mL, EZAG GalliaPharm, average of 2, T1 (1 h)) was 100%. For the same compound, the “Radiochemical Purity … (%)” value (25 mg ascorbic acid, 19.5-20.0 mCi, 1.85-1.90 mCi/mL, EZAG GalliaPharm, n=2, T0) was “C (C = all results conform to specifications)”, the “Radiochemical Purity … (%)” value (25 mg ascorbic acid, 19.5-20.0 mCi, 1.85-1.90 mCi/mL, EZAG GalliaPharm, n=2, T1 (1 h)) was “C (C = all results conform to specifications)” and the “Radiochemical Purity … (%)” value (25 mg ascorbic acid, 23.3-24 mCi, 2.22-2.28 mCi/mL, IRE Galli Eo, average of 2, T0) was 100%. The “Radiochemical Purity … (%)” value (25 mg ascorbic acid, 23.3-24 mCi, 2.22-2.28 mCi/mL, IRE Galli Eo, average of 2, T4 (4 h)) was 100%, the “Radiochemical Purity … (%)” value (25 mg ascorbic acid, 23.3-24 mCi, 2.22-2.28 mCi/mL, IRE Galli Eo, n=2, T0) was “C (C = all results conform to specifications)” and the “Radiochemical Purity … (%)” value (25 mg ascorbic acid, 23.3-24 mCi, 2.22-2.28 mCi/mL, IRE Galli Eo, n=2, T4 (4 h)) was “C (C = all results conform to specifications)”. For the same compound, the “Radiochemical Purity … (%)” value (25 mg ascorbic acid, 46.0-46.1 mCi, 4.38-4.39 mCi/mL, EZAG GalliaPharm, average of 2, T0) was 100%, the “Radiochemical Purity … (%)” value (25 mg ascorbic acid, 46.0-46.1 mCi, 4.38-4.39 mCi/mL, EZAG GalliaPharm, average of 2, T4 (4 h)) was 100% and the “Radiochemical Purity … (%)” value (25 mg ascorbic acid, 46.0-46.1 mCi, 4.38-4.39 mCi/mL, EZAG GalliaPharm, n=2, T0) was “C (C = all results conform to specifications)”. For the same compound, the “Radiochemical Purity … (%)” value (25 mg ascorbic acid, 46.0-46.1 mCi, 4.38-4.39 mCi/mL, EZAG GalliaPharm, n=2, T4 (4 h)) was “C (C = all results conform to specifications)” and the “Radiochemical Purity … (%)” value (bracketing ~1 mCi/mL, 18.75 mg ascorbic acid, 8.9-11.5 mCi, 0.85-1.09 mCi/mL, IRE Galli Eo, average of 2, T0) was 100%.
